Assay results taken from US10925282B2, “Enhanced kill of microorganisms” (CONOCOPHILLIPS COMPANY, priority 2017, dated 2021).
Read-outs that look alike come from different tables or passages of the source.

Tests used:
[1] = system: Barnett sulfate reducing bacteria (SRB) culture
[2] = system: freshwater denitrifying culture; details: 20 mM; 30-minute exposure; cited from earlier work
[3] = 1 mM nitrite, approximately 24 hours

O=NO [nitrite]
cATP concentration [1, 3]: below 1000 picograms per mL
reduction in cATP concentrations [1, 3]: > 90%
time required to reach a cATP concentration below 1000 picograms per mL ([1]; 1 mM nitrite, initial microbial equivalency 1.0×10^7 cells/mL, 30° C.): Approximately 24 hours
reduction in cATP concentrations ([1]; 2 mM nitrite, same time period (approximately 24 hours)): > 99%

[O]=[W](=[O])([O-])[O-] [tungstate]
reduction of ATP levels [2]: 41%
